Assay results from ChEMBL document CHEMBL1156829 (Proc Natl Acad Sci U S A, 2008).

What was measured:
Plasmodium falciparum [1] = assay: NOVARTIS: Inhibition of Plasmodium falciparum 3D7 (drug-susceptible) proliferation in erythrocyte-based infection assay; type: functional, organism-based; details: Plasmodium falciparum, 3D7
Plasmodium falciparum [2] = assay: NOVARTIS: Inhibition of Plasmodium falciparum W2 (drug-resistant) proliferation in erythrocyte-based infection assay; type: functional, organism-based; details: Plasmodium falciparum, W2; read-out: EC50
[3] = NOVARTIS: Cytotoxicity against human hepatocellular carcinoma cell line (Huh7); type: toxicity, cell-based, Huh-7; details: Huh7 cells (hepatocellular carcinoma cell line)

Structure (SMILES)	EC50 (Plasmodium falciparum [1])	EC50 (Plasmodium falciparum [2])	CC50 [3]
O=C(NCc1ccc(Cl)cc1)C1CNCC1c1ccc(C(F)(F)F)cc1 (stereo not given)	0.392 µM	0.412 µM	18.2 µM
CCNc1ncnc2sc(C(=O)NCc3csc(C)n3)c(C)c12	> 12.5 µM	> 8.59 µM	> 100 µM
CC1Cc2ccccc2N1C(=O)Cn1c(=O)oc2ccccc21 (stereo not given)	> 0.907 µM	> 1.25 µM	> 10 µM
CCOc1ccccc1C(=O)NC(Nc1sc2c(c1C(N)=O)CCCC2)(C(F)(F)F)C(F)(F)F	> 7.5 µM	2.49 µM	> 100 µM
Cc1ccc(C(=O)NNc2nc(Nc3ccccc3)nc(N3CCCC3)n2)cc1	> 12.5 µM	1.99 µM	> 100 µM
CC(=O)Oc1ccccc1-c1nc2cc(C)ccn2c1NC(C)(C)CC(C)(C)C	0.389 µM	< 0.00533 µM	> 10 µM
COc1ccc(-c2nc3cc(Cc4ccc5[nH]c(-c6ccc(OC)cc6)nc5c4)ccc3[nH]2)cc1	0.234 µM	0.775 µM	6.22 µM
CCN1CCC(N2CCC(n3c(C4CCC4)nc4cc(F)ccc43)CC2)CC1	0.453 µM	2.17 µM	21.5 µM
CCN(CC)CCCNCC(=O)N1c2ccccc2Sc2ccccc21	> 12.5 µM	1.25 µM	> 100 µM
CCOC(=O)CCCSc1nc(-c2cccs2)cc(C(F)(F)F)c1C#N	0.352 µM	0.198 µM	> 10 µM
COc1ccc(OC)c(NC2=C(Cl)C(=O)N(c3ccc(C)c(Cl)c3)C2=O)c1	5.07 µM	> 12.5 µM	> 100 µM
CC(=O)O[C@]1(C(C)=O)CCC2C3C=CC4=CC(=O)CC[C@]4(C)C3CC[C@@]21C (stereo not given in full)	> 1.21 µM	1.01 µM	> 10 µM
Cc1c(C)c2c(c(C)c1O)CC[C@](C)(CN1CCN(c3cc(N4CCCC4)nc(N4CCCC4)n3)CC1)O2	0.175 µM	0.384 µM	42 µM
O=C1CC(N2CCCCCC2)C(=O)N1c1ccc(N2C(=O)CC(N3CCCCCC3)C2=O)cc1 (stereo not given)	> 1.25 µM	> 0.155 µM	> 10 µM
CC1(C)CN=C(N2CCN(CC(O)COc3ccc(OCC(O)CN4CCN(C5=NCC(C)(C)S5)CC4)cc3)CC2)S1 (stereo not given)	2.42 µM	> 1.25 µM	> 10 µM
N#C/C(=C\c1cn(Cc2ccccc2Cl)c2ccccc12)c1nn(CCO)c(N)c1C#N	0.5 µM	0.45 µM	> 10 µM
CN1CCN(c2nc(Nc3ccc(O)cc3)nc3ccccc23)CC1	0.626 µM	0.443 µM	41.8 µM
CCN(CC)c1scc(-c2ccc(Br)cc2)[s+]1	0.349 µM	0.541 µM	> 10 µM
CCOC(=O)c1cc(-c2ccc(OC)cc2)n(CCC(=O)NCc2ccc(OC)cc2)c1C	0.987 µM	0.781 µM	> 100 µM
COc1ccc(C[C@H]2NC[C@H](O)[C@H]2OC(C)=O)cc1 [ANISOMYCIN]	0.00975 µM	0.0103 µM	> 2.36 µM
O=C1CC(c2cccc([N+](=O)[O-])c2)c2cc3c(cc2N1)OCO3 (stereo not given)	> 10.2 µM	> 11.8 µM	> 100 µM
FC(F)(F)c1cccc(Nc2nc3nonc3nc2Nc2ccc(Br)cc2)c1	7.62 µM	5.2 µM	7.13 µM
CN(C)c1ccc(C=C2SC(=N)N(c3nccs3)C2=O)cc1	5.05 µM	1.83 µM	> 100 µM
COc1ccc2c(c1)C(=NN=C(N)N)c1cc(OC)ccc1-2	0.123 µM	0.178 µM	> 10 µM
C=CCn1cc(C=NNc2nc3ccccc3[nH]2)c2ccccc21	0.0913 µM	0.22 µM	18.4 µM

Structure (SMILES)	EC50 (Plasmodium falciparum [1])	EC50 (Plasmodium falciparum [2])	CC50 [3]
CN(CCCNc1ccnc2cc(Cl)ccc12)C(=O)c1cccc(C(F)(F)F)c1	0.0851 µM	0.278 µM	> 2.55 µM
Cc1cc(C)n(-c2ccc(NC(=O)C3CCN(Cc4cc(C)c(C)o4)CC3)cc2)n1	0.888 µM	> 1.25 µM	> 10 µM
CC(=O)N(C1=C(N2CCCC2)C(=O)c2ccccc2C1=O)c1ccc(F)c(F)c1	0.407 µM	0.174 µM	20.2 µM
CCN1CCN(Cc2ccc(-c3cc4c(N[C@H](C)c5ccccc5)ncnc4[nH]3)cc2)CC1 [AEE-788]	1.38 µM	0.0285 µM	27.8 µM
O=C(NCC1CCCO1)c1ccc([N+](=O)[O-])cc1Cl (stereo not given)	> 1.12 µM	> 0.877 µM	> 10 µM
O=c1c2sccc2nc(SCc2cc(=O)n3ccccc3n2)n1Cc1ccccc1	> 1.25 µM	1.28 µM	> 10 µM
CCCOC(=O)C1=C(C)NC2=C(C(=O)CC(c3ccc(Cl)cc3)C2)C1c1ccc(Br)cc1 (stereo not given)	0.498 µM	0.198 µM	> 100 µM
COc1ccc(/C=C2/SC(=Nc3ccccc3OC)NC2=O)cc1	0.0836 µM	0.0384 µM	19.8 µM
COc1cc(C(=O)ON=C(N)Cc2cccc3ccccc23)cc(OC)c1OC	0.28 µM	0.171 µM	48.1 µM
CC(=O)c1ccc(N2C(C)c3nc4ccccc4c(=O)n3C2c2cccc(O)c2)cc1 (stereo not given)	1.05 µM	0.646 µM	> 10 µM
O=c1c2ccccc2[nH]c2ccc(I)cc12	0.393 µM	0.418 µM	> 100 µM
CCC(C)NC(=O)c1cc(NC(=O)c2cccc(Cl)c2)ccc1N1CCCCC1 (stereo not given)	> 1.61 µM	0.194 µM	15.4 µM
COC(=O)C1=C(C)N/C(=C\c2cc(C)n(-c3cc(C)ccc3C)c2C)C1=O	0.0124 µM	0.0151 µM	> 10 µM
O=C(CCC1CCCC1)NC1CCC(Nc2ccnc3cc(Cl)ccc23)CC1 (stereo not given)	1.01 µM	0.875 µM	> 3.89 µM
CCOC(=O)c1ccc2nc(-c3ccccc3)cc(O)c2c1	0.549 µM	0.493 µM	> 100 µM
O=C(Nc1ccc(F)c(Cl)c1)c1c2c(nc3ccccc13)CCN(Cc1ccccc1)C2	0.799 µM	0.0967 µM	> 100 µM
Nc1c(C(=O)Nc2ccc(C3=NCCN3)cc2)cccc1C(=O)Nc1ccc(C2=NCCN2)cc1	0.259 µM	0.107 µM	> 10 µM
Nc1ccc2nc(-c3cccc(-c4nc5ccc(N)cc5s4)c3)sc2c1	0.283 µM	0.995 µM	> 100 µM
O=C1N=C(N2CCOCC2)S/C1=C/c1cccc2ccccc12	> 1.25 µM	0.329 µM	> 10 µM
CC1CN(C(=O)CCCSc2nnc(Cc3ccccc3)n2-c2ccc(Cl)c(Cl)c2)CC(C)O1 (stereo not given)	> 12.5 µM	2.23 µM	> 100 µM
COC(=O)c1ccc(Cn2cc(C=O)c3ccccc32)o1	> 1.25 µM	> 0.707 µM	> 10 µM
CCc1ccc2c(c1)C1(NN=C(c3ccc(C)cc3)S1)C(=O)N2 (stereo not given)	1.49 µM	2.1 µM	23.8 µM
COc1ccc2nc(C)cc(NN=Cc3cccc(OC)c3O)c2c1	0.0251 µM	0.0235 µM	6.12 µM
CCOc1ccccc1NC(=O)Nc1ccc2nc(N3CCN(C)CC3)cc(C)c2c1	1.17 µM	0.456 µM	21.4 µM
CN(C)c1ccc(C(=Cc2cc(-c3ccccc3)cc(-c3ccccc3)[o+]2)c2ccc(N(C)C)cc2)cc1	1.99 µM	0.898 µM	14.4 µM
